Values after ≈ are worked out from the molar mass of the structure shown. Values joined by “and” are separate entries in the source; they are usually repeats but may differ in a detail not shown here. Identical values can stand only once. “Also recorded” adds a separate entry of the source. Like-named read-outs stand apart in the source and are kept apart here. Marks after values point to notes of the source that are not given here.
Experiments:
[1] = tested on: human red blood cells; assay: Hemolysis assay with red blood cells; details: human RBCs, 1 hour, 37° C.
Experimental: Hemolysis assays are used to determine the membrane-lysis activity of a compound, which is of particular interest to this work as membrane-lysing agents (e.g., QACs) can eradicate biofilms.
Cytotoxicity Assay against HEK-293 Cells.^48 The viability of HEK-293 cells was assessed by the MTT assay. The cells were cultured in DMEM medium containing 10% fetal bovine serum and 100 U/mL penicillin and streptomycin. The cells (10^4 cells/well) were seeded onto a 96-well plate and maintained at 37° C. in a humidified incubator under 5% CO2 overnight. […] After incubation at 37° C. for 72 hours, 10 μL of MTT (5 mg/mL) in PBS was added to each well and incubated for 4 hours, followed by the aspiration of the medium. Dimethyl sulfoxide (DMSO, 100 μL) was then added to each well to dissolve the MTT in the wells, and the plate was agitated for 1 hour. The optical density (OD) was measured at 570 nm using a UV/vis microplate spectrophotometer (BioTek). The percent inhibition was calculated as follows: Inhibition (%)=(1−test OD570/non-treated OD570)×100%. The data were analyzed by Origin. Hemolysis Assay with Red Blood Cells. […] The washing was repeated three times with the buffer. In 96-well plate, test compounds were added to the buffer from DMSO stocks. […] The plate was then incubated for 1 hour at 37° C. After incubation, the plate was centrifuged for 5 minutes at 3,500 rpm before 80 μL of the supernatant was transferred to another 96-well plate to obtain an optical density (OD) read at 405 nm. DMSO served as the negative control (0% hemolysis) while Triton X served as the positive control (100% hemolysis) in these experiments. The percent hemolysis was calculated as (OD405 of the compound treated RBCs−OD405 DMSO control)/(OD405 Triton X treated RBCs−OD405 buffer) from three independent experiments.

[2] = tested on: MRSA-1707 biofilms; assay: Calgary Biofilm Device (CBD) assay; details: Staphylococcus aureus, read-out: MRSA-1707 MBC
[3] = tested on: MRSE 35984 biofilms; assay: Calgary Biofilm Device (CBD) assay; details: Staphylococcus epidermidis, MRSE, read-out: MRSE 35984 MBC
[4] = tested on: VRE 700221 biofilms; assay: Calgary Biofilm Device (CBD) assay; details: Enterococcus, read-out: VRE 700221 MBC
[5] = tested on: MRSA-1707; assay: MIC susceptibility assay (broth microdilution); details: 16 h; for MIC: Staphylococcus aureus, MRSA, read-out: MIC MRSA-1707, planktonic growth inhibition, 16 h, 37° C.; for MIC MRSA-1707: planktonic growth inhibition, 37° C.
Experimental: (§1) (MIC values were further supported by spectrophotometric readings at OD600). The concentration range tested for each HP compound during this study was 0.05 to 50 μM. DMSO served as our vehicle and negative control in each microdilution MIC assay. DMSO was serially diluted with a top concentration of 0.5% v/v.

[6] = tested on: MRSE 35984; assay: MIC susceptibility assay (broth microdilution); details: Staphylococcus epidermidis, MRSE, 16 h, read-out: MIC MRSE 35984
Experimental: as §1

[7] = tested on: E. faecalis OG1RF; assay: MIC susceptibility assay (broth microdilution); details: Enterococcus faecalis, 16 h, read-out: MIC E. faecalis OG1RF
Experimental: as §1

[8] = tested on: Mtb CDC1551; assay: microbe, parasite or virus in culture; type: cell-based, Mycobacterium tuberculosis
[9] = tested on: HepG2 cells; assay: Alamar Blue cytotoxicity assay, HepG2; details: read-out: Hep G2 Cytotox. (IC50), 24-h
[10] = tested on: MRSA-44; assay: MIC susceptibility assay (broth microdilution); details: Staphylococcus aureus, 16 h, read-out: MIC MRSA-44
Experimental: as §1

[11] = tested on: J774 MΦ; assay: Alamar Blue cytotoxicity assay, J774 macrophages; details: read-out: J774 MΦ Cytotox. (IC50), 24-h
[12] = tested on: MRSA, MRSE and VRE strains; assay: MIC assays, summary statements over several Gram-positive strains
Experimental: as §1

[13] = pKa determination by UV-vis spectroscopy; type: physicochemical
Experimental: (c) pKa determination of select HP analogues.^36 Dissociation constants (pKa) for select HP analogues were determined using UV-vis spectroscopy and the Henderson-Hasselbalch equation. Buffers were prepared using potassium phosphate monobasic (KH2PO4) and sodium phosphate dibasic ([…]) in a 1:1 solution of water:methanol to achieve a pH range of 4.07 to 9.66 (ammonium hydroxide was added to prepare buffer pH over 9.80). Compounds were added from 10 mM stock solutions in dimethyl sulfoxide (25 μL) to 1975 μL of each buffer to each evaluate analogue to yield a final compound concentration of 125 μM. Full spectral scans were performed from 200 to 800 nm in 2 nm increments to determine λmax values for the protonated phenol (HA) and the deprotonated phenolate species (A^−). The change in absorption at each determined λmax in relation to pH was monitored in each buffer and plotted as absorbance versus pH for each species. The pKa was first estimated by determining the pH of the point of intersection of the two linear curves. The visual estimation was confirmed by plotting pH versus log [A^−/HA]. The resulting plot yielded a linear regression line with a Y-intercept corresponding to a calculated pKa value.

[14] = tested on: Mtb H37Ra; assay: MIC assay for Mtb H37Ra; details: seven days, 37° C.
[15] = tested on: E. faecalis OG1RF biofilms; assay: Calgary Biofilm Device (CBD) assay; details: Enterococcus faecalis, OG1RFBIOFILMS, read-out: E.faecalis OG1RF MBC
[16] = tested on: HeLa cells; assay: LDH release assay for HeLa cytotoxicity; details: read-out: HeLa Cell Cytotox. (IC50), 24-h, tested at 25, 50 and 100 μM
[17] = tested on: isdB, sfaA, sbnC, MW0695 transcripts in MRSA-1707 biofilms; assay: RT-qPCR of iron uptake genes in MRSA biofilms; details: 4 h treatment at 1 μM or 1/10×MBEC
[18] = tested on: VRE 700221; assay: MIC susceptibility assay (broth microdilution); details: Enterococcus, VRE, 16 h, read-out: MIC VRE 700221
Experimental: The concentration range tested for each HP compound during this study was 0.05 to 50 μM. DMSO served as our vehicle and negative control in each microdilution MIC assay. DMSO was serially diluted with a top concentration of 0.5% v/v.

[19] = Mycobacterium tuberculosis, CDC1551, 120 h

SMILES	% Hemolysis at 200 μM [1]	MBC [2]	MBC [3]	MIC [5]	MIC [6]	MIC [7]	MIC [8, 19]	IC50 [9]	MIC [10]	IC50 [11]	further results
Oc1c(Br)c(Cl)c(Br)c2nc3ccc(I)cc3nc12 [Compound 37, 2,4-Dibromo-3-chloro-8-iodophenazin-1-ol]	3.0%	12.5 µM (≈ 6.43 µg/mL)	6.25 µM (≈ 3.21 µg/mL)	0.15 µM (≈ 0.0772 µg/mL)	0.3 µM (≈ 0.154 µg/mL)	1.56 µM (≈ 0.802 µg/mL)					MBC [4]: 4.69 µM (≈ 2.41 µg/mL)
Cc1ccc2nc3c(O)c(Br)c(Cl)c(Br)c3nc2c1C [Compound 30, 2,4-Dibromo-3-chloro-6,7-dimethylphenazin-1-ol]	≤1%		3.13 µM (≈ 1.3 µg/mL)		≤ 0.05 µM	0.2 µM (≈ 0.0833 µg/mL)	3.62 µM (≈ 1.51 µg/mL)	> 200 µM	0.08 µM (≈ 0.0333 µg/mL)	> 200 µM	MBC [4]: 0.78 µM (≈ 0.325 µg/mL); MIC ([12]; read-out: MIC against MRSA, MRSE and VRE strains): 0.05 to 0.1 µM (≈ 0.0208 to 0.0417 µg/mL); MICs against all Gram-positive strains in the panel ([12]; result in words): sub-micromolar
Oc1cc(Cl)cc2nc3c(Oc4ccccc4)cccc3nc12 [Compound 22, 3-Chloro-6-phenoxyphenazin-1-ol]				3.13 µM (≈ 1.01 µg/mL)	3.13 µM (≈ 1.01 µg/mL)				3.13 µM (≈ 1.01 µg/mL)		
Oc1c(Br)c(Cl)c(Br)c2nc3ccccc3nc12 [Compound 28, 2,4-Dibromo-3-chlorophenazin-1-ol]	≤1%	50 µM (≈ 19.4 µg/mL)	12.5 µM (≈ 4.86 µg/mL)	0.15 µM (≈ 0.0583 µg/mL)		3.13 µM (≈ 1.22 µg/mL)	4.37 µM (≈ 1.7 µg/mL)	> 200 µM		> 200 µM	pKa [13]: 5.93; MIC Mtb H37Ra [14]: 6.25 µM (≈ 2.43 µg/mL); MBC [15]: 75 µM (≈ 29.1 µg/mL); IC50 [16]: > 100 µM; MIC MRSA-1707 [5]: 0.15^a μM and 0.15 μM; iron starvation / up-regulation of iron uptake genes in MRSA-1707 biofilms [17]: induction of iron starvation; also recorded: up-regulating iron uptake genes; also recorded: induced rapid iron starvation; also recorded: rapidly induce iron starvation
Cc1c(Br)ccc2nc3c(O)c(Br)c(Cl)c(Br)c3nc12 [Compound 31, 2,4,7-Tribromo-3-chloro-6-methylphenazin-1-ol]	27%	75 µM (≈ 36.1 µg/mL)			0.1 µM (≈ 0.0481 µg/mL)	0.08 µM (≈ 0.0385 µg/mL)	0.88 µM (≈ 0.424 µg/mL)	> 200 µM		> 200 µM	MIC [8]: 0.88 µM (≈ 0.424 µg/mL); MBC [15]: 1.56 µM (≈ 0.751 µg/mL); MIC [18]: ≤ 0.05 µM
Oc1c(Br)c(Cl)c(Br)c2nc3ccc(F)cc3nc12 [Compound 33, 2,4-Dibromo-3-chloro-8-fluorophenazin-1-ol]	≤1%	12.5 µM (≈ 5.08 µg/mL)	12.5 µM (≈ 5.08 µg/mL)	0.15 µM (≈ 0.061 µg/mL)			1.71 µM (≈ 0.695 µg/mL)	> 200 µM	0.2 µM (≈ 0.0813 µg/mL)	> 200 µM	IC50 [16]: > 25 µM; MIC MRSA-1707 [5]: 0.15 µM (≈ 0.061 µg/mL)
Oc1cc(Cl)cc2nc3ccccc3nc12 [Compound 18, 3-Chlorophenazin-1-ol]				25 µM (≈ 5.77 µg/mL)	18.8 µM (≈ 4.34 µg/mL)						MIC [18]: > 50 µM
CC(=O)NC[C@H]1CN(c2ccc(N3CCOCC3)c(F)c2)C(=O)O1 [Linezolid, reference compound]		31.3 µM (≈ 10.6 µg/mL)		12.5 µM (≈ 4.22 µg/mL)							
